From patent publication US20210156846A1, “MICROFLUIDIC PLATFORM FOR TARGET AND BIOMARKER DISCOVERY FOR NON-ALCOHOLIC FATTY LIVER DISEASE” (Javelin Biotech, Inc., priority 2019, published 2021) come the findings set out here.

The subject of the assay is liver-adipose crosstalk MPSs. As to the kind of experiment: Disease severity in NAFLD liver-adipose crosstalk MPS after treatment. The format is cell-based, human. Conditions: MHM-induced NAFLD liver-adipose crosstalk MPS; no data shown. The protocol: The disease modifying potential of targets is evaluated using one or both of large and small molecules and functional genomics tools, such as CRISPR. For example, large molecules can include ligand antagonists, Humira (adalimumab) blocks, and TNF-α. Healthy and NAFLD liver-adipose MPSs are established previously described. Following disease induction, the liver-adipose MPSs are treated with small molecules (alone and in combination) or CRISPR short guide RNAs (sgRNAs) that modulate the activity or expression of disease-relevant signaling pathways (e.g. CCR2-5, FXR, PPARγ, PPARβ/δ, and PPARγ) as previously described in relation to FIG. 4. The dosing regimen are optimized using the efficacy data generated using the liver and adipose spheroids previously described. The disease-modifying potential of the therapeutic treatment regimens in the liver-adipose crosstalk MPS 120 are determined using phenotypic (e.g., IR, steatosis, steatohepatitis, and fibrosis) and biomarker (apoptosis, hepatokine, adipokine, cytokine) readouts.
In the liver-adipose MPS 120, MHM induces a NAFLD phenotype in the liver (e.g., oxidative stress, steatosis, and fibrosis) and adipose tissue (e.g., steatosis) compared to MPSs cultured in healthy medium. Clinical biomarkers of NAFLD (e.g., AST, ALT, cytokeratin-18) are elevated in diseased systems compared to healthy systems. […]

As to `CCCCOCCOc1ccc(-c2ccc3c(c2)/C=C(/C(=O)Nc2ccc([S@@+]([O-])Cc4cncn4CCC)cc2)CCCN3CC(C)C)cc1` [cenicriviroc], the “severity of the steatosis, fibrosis, and insulin resistance” value is reported as “reduce the severity”.

As for `CSc1ccc(C(=O)/C=C/c2cc(C)c(OC(C)(C)C(=O)O)c(C)c2)cc1` [elafibranor], the “severity of the steatosis, fibrosis, and insulin resistance” value was “reduce the severity”.
